For this assay, the system named is mouse ischemic foot edema. The experiment in a line: Effect on mouse ischemic foot edema. Format: in vivo, ddy male mouse. The note with it: given just before ischemia, HA 26.71 mg. The protocol: A ddy male mouse aged 8 weeks is kept in a keeping device and the right hind leg is tied around with a suture (Brain No. 2). One end of the suture is fixed while a weight of 500 g is suspended from another end of the suture. Thus, ischemia is conducted for a definite period of time. Before the ischemia and 60 minutes thereafter, the thickness of the foot-pad of the animal was measured with slide calipers. Then, the foot-pad is cut and weighed. To a control group, a physiological saline is intravenously administered immediately before the initiation of the ischemia. To test groups, specimen shown in Table 6 was administered 30 minutes before the initiation of the ischemia and immediately before the same. Each group has 5 animals. The catarase used as a specimen was originated from bovine liver. The HA-catalase used was prepared as follows. 10 mg of the HA-catalase of lot No. 120-1 was dissolved in 5.2 ml of a physiological saline and filtered through a membrane of 0.22 μm (Milex GV; mfd. by Nippon Millipore Kogyo K.K.). 1 ml portions of the filtrate were distributed to ampuls to give a preparation for injection. The preparation contained 600 U of the enzyme per ampul.
The effects were calculated in accordance with the following equations. [formula] It is believed that a sample showing A of 40 or more is effective. [formula] It is believed that a sample showing A of 60 or more is effective.

As for hyaluronic acid [HA], the “Effect A” value turned out to be 22 and the “Effect B” value is given as 35.

These data come from patent publication US5310881A, “Glycosaminoglycan-modified protein” (Seikagaku Corporation, priority 1990, dated 1994).
